Drawing on PMC9516332 (Frontiers in Oncology, 2022), this text covers inhibition for 7 compounds.

The structures appear in SMILES notation.

Common to all, as to assay: Kinase panel profiling at 1 µmol/L (MSA or IMAP), percentage inhibition
Holding throughout (format): biochemical

The target in assay [1] is T1, panel of 255 wild-type kinases (Homo sapiens, UniProt O14920).
T1 sequence (O14920 1-756): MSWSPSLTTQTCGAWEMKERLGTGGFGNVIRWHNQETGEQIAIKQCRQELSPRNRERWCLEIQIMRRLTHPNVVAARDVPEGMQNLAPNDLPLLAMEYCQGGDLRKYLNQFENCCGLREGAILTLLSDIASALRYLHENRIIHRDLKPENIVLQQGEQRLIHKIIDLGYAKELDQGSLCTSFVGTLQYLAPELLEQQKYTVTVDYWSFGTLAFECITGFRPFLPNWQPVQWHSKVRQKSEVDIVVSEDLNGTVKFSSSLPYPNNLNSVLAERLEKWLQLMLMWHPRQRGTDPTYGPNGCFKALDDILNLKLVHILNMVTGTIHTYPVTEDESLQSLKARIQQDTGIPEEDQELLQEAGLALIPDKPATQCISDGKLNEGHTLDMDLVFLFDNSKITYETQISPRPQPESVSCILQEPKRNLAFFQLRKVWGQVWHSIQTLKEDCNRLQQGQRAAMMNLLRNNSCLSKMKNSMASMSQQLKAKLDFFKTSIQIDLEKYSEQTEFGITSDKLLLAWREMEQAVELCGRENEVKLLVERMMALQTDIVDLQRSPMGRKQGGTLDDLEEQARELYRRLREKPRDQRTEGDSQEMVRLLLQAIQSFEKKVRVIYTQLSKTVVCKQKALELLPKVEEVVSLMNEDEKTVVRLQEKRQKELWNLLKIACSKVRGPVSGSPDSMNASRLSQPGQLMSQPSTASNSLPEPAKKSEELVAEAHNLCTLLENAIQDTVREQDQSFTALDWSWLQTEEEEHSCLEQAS
As to conditions: kinase IKKβ; 1 µmol/L single concentration; read-out: %-inhibition at 1 µmol/L, IKKβ.

The target of assay [2] is panel of 255 wild-type kinases (Homo sapiens, UniProt O96017). The following applies: CHK2 kinase assay; 1 µmol/L single concentration; read-out: %-inhibition CHK2.
The target in assay [3] is panel of 255 wild-type kinases (Homo sapiens, UniProt P09769). The following applies: kinase FGR; 1 µmol/L single concentration; read-out: %-inhibition at 1 µmol/L, FGR.
For assay [4], the target named is panel of 255 wild-type kinases (Homo sapiens, UniProt P51617). As to conditions: kinase IRAK1; 1 µmol/L single concentration; read-out: %-inhibition at 1 µmol/L, IRAK1.
Assay [5] has as its target T2, panel of 255 wild-type kinases (Homo sapiens, UniProt Q05513).
T2 sequence (Q05513 1-592): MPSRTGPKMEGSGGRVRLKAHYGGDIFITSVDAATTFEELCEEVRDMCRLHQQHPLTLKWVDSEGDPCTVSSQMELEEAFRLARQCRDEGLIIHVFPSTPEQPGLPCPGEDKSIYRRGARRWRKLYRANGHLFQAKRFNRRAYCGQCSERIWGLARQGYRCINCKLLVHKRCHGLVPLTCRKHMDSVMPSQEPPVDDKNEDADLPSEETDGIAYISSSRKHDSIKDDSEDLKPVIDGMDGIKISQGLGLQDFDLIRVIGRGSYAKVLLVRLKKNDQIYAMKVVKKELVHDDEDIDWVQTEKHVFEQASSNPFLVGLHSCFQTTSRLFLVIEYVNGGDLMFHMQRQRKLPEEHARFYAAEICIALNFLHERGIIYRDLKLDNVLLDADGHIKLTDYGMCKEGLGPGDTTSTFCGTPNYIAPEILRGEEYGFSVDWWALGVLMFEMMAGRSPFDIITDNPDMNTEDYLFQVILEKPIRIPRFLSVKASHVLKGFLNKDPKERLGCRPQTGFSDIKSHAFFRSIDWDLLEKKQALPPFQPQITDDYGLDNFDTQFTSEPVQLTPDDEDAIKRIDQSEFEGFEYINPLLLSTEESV
As to conditions: kinase PKCζ; 1 µmol/L single concentration; read-out: %-inhibition at 1 µmol/L, PKCζ.

Assay [6] concerns the target panel of 255 wild-type kinases (Homo sapiens, UniProt Q13557). As to conditions: CaMK2δ kinase assay; 1 µmol/L single concentration; read-out: %-inhibition CaMK2δ.
Assay [7] concerns the target T3, panel of 255 wild-type kinases (Homo sapiens, UniProt Q8IW41).
T3 sequence (Q8IW41 1-473): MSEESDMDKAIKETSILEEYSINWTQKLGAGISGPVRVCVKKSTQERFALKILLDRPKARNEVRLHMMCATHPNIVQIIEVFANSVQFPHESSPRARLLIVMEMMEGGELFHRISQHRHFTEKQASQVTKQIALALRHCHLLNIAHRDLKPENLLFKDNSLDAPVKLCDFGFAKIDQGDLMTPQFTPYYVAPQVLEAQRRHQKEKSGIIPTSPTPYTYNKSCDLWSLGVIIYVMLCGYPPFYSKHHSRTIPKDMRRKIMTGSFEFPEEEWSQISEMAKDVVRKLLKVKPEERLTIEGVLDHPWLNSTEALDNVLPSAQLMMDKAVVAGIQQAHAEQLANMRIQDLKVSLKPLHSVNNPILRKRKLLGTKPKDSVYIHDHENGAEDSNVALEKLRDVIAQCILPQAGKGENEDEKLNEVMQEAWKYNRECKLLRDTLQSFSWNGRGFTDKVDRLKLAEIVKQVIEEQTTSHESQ
The following applies: MAPKAPK5; 1 µmol/L single concentration; read-out: %-inhibition, MAPKAPK5.

Assay [8] deals with panel of 255 wild-type kinases (Homo sapiens, UniProt Q9BUB5). As to conditions: MNK1; 1 µmol/L single concentration; read-out: %-inhibition, MNK1.

Take `CO[C@]1(C(=O)N[C@@H](C)c2ccc(-n3cc(F)cn3)nc2)CC[C@H](c2nc(C)cc(Nc3cc(C)[nH]n3)n2)CC1` [pralsetinib]: the inhibition at 1 µM was 32% in assay [1]; 10% in assay [2]; 81% in assay [3]; 9% in assay [4]; -0.213% in assay [5]; -1% in assay [6]. Also, the inhibition at 1 µM in assay [7] was -3.49%; in assay [8] it was -4.32%.

In the case of `C[C@H]1Oc2cc(cnc2N)-c2c(nn(C)c2C#N)CN(C)C(=O)c2ccc(F)cc21` [lorlatinib], the inhibition at 1 µM was -0.377% in assay [1]; 41% in assay [2]; 22% in assay [3]; 10% in assay [4]; 17% in assay [5]; 36% in assay [6]. Further, the values for the inhibition at 1 µM in assay [7] and in assay [8] were 2.32% and 6%, respectively.

Take `CCn1c(=O)c(-c2cc(NC(=O)Nc3ccccc3)c(F)cc2Br)cc2cnc(NC)cc21` [ripretinib]: the inhibition at 1 µM in assay [1] was 21%; in assay [2], 6%; in assay [3], 50%; in assay [4] it was -5.68%; in assay [5] it was 15%; in assay [6], 0.353%. In addition, the inhibition at 1 µM in assay [7] was -3.71%; in assay [8], 8.51%.

Turning to `Cc1nc(NC(=O)N2CCC[C@H]2C(N)=O)sc1-c1ccnc(C(C)(C)C(F)(F)F)c1` [alpelisib], the inhibition at 1 µM was 0.111% in assay [1]; -1.14% in assay [2]; 2% in assay [3]; -5.3% in assay [4]; 14% in assay [5]; 0.814% in assay [6]. The inhibition at 1 µM in assay [7] was -2.15%; in assay [8] it was 2.72%.

Take `FC(F)(F)c1ccc(CNc2ccc(Cc3c[nH]c4ncc(Cl)cc34)cn2)cn1` [pexidartinib]: the inhibition at 1 µM is 5% in assay [1]; 11% in assay [2]; 5.64% in assay [3]; -5% in assay [4]; 13% in assay [5]; 5.41% in assay [6]. Also, the inhibition at 1 µM worked out at 0.469% in assay [7] and 61% in assay [8].

For `CCc1nc(C(N)=O)c(Nc2ccc(N3CCC(N4CCN(C)CC4)CC3)c(OC)c2)nc1NC1CCOCC1` [gilteritinib], the inhibition at 1 µM was 5.66% in assay [1]; 75% in assay [2]; 96% in assay [3]; 84% in assay [4]; 21% in assay [5]; 84% in assay [6]. The inhibition at 1 µM in assay [7] was -0.923%; in assay [8] it was 70%.

In the case of `O=C(Nc1cnn2ccc(N3CCC[C@@H]3c3cc(F)ccc3F)nc12)N1CC[C@H](O)C1` [larotrectinib], the inhibition at 1 µM in assay [1] is -1.76%; in assay [2], 3.46%; in assay [3] it was 2.55%; in assay [4], -0.211%; in assay [5], 0.558%; in assay [6], 6%. Besides, the values for the inhibition at 1 µM in assay [7] and in assay [8] were -3% and -5.37%, respectively.
